Test results as given in ChEMBL document CHEMBL5696439 (Cancer Res, 2010).
The source made the active and inactive calls. The rule behind the calls is not given here.

Legend:
[1] = molecular target: Tyrosine-protein kinase ABL1 (Homo sapiens) (UniProt P00519); assay: Inhibition of recombinant human full-length His-tagged ABL1 expressed in insect cells at 2 uM using Tyr 02 as substrate measured after 1 hr by Z'-LYTE assay relative to control; conditions: Insect cell
[2] = molecular target: Serine/threonine-protein kinase BRSK1 (Homo sapiens) (UniProt Q8TDC3); assay: Inhibition of recombinant human full-length GST tagged BRSK1 expressed in baculovirus expression system at 2 uM using Ser/Thr 21 as substrate measured after 1 hr by Z'-LYTE assay relative to control
[3] = molecular target: Serine/threonine-protein kinase MRCK alpha (Homo sapiens) (UniProt Q5VT25); assay: Inhibition of recombinant human His-tagged CDC42BPA (1-473 residues) expressed in baculovirus expression system at 2 uM using Ser/Thr 13 as substrate measured after 1 hr by Z'-LYTE assay relative to control
[4] = molecular target: Serine/threonine-protein kinase DCLK2 (Homo sapiens) (UniProt Q8N568); assay: Inhibition of recombinant human full-length GST-tagged DCAMKL2 expressed in baculovirus expression system at 2 uM using Ser/Thr 17 as substrate measured after 1 hr by Z'-LYTE assay relative to control
[5] = molecular target: Ephrin type-B receptor 4 (Homo sapiens) (UniProt P54760); assay: Inhibition of recombinant human His-tagged EPHB4 (561-987 residues) expressed in baculovirus expression system at 2 uM using Tyr 01 as substrate measured after 1 hr by Z'-LYTE assay relative to control
[6] = molecular target: Fibroblast growth factor receptor 3 (Homo sapiens) (UniProt P22607); assay: Inhibition of recombinant human His-tagged FGFR3 (399-806 residues) expressed in insect cells at 2 uM using Tyr 04 as substrate measured after 1 hr by Z'-LYTE assay relative to control; conditions: Insect cell
[7] = molecular target: Tyrosine-protein kinase Fyn (Homo sapiens) (UniProt P06241); assay: Inhibition of recombinant human full-length His-tagged FYN expressed in insect cells at 2 uM using Tyr 02 as substrate measured after 1 hr by Z'-LYTE assay relative to control; conditions: Insect cell
[8] = test system: Tyrosine-protein kinase JAK2 (Homo sapiens), O60674 [V617F]; assay: Inhibition of recombinant human GST-tagged JAK2 JH1 JH2 domains V617F mutant (532-1132 residues) expressed in insect cells at 2 uM using Tyr 06 as substrate measured after 1 hr by Z'-LYTE assay relative to control; conditions: Insect cell
[9] = molecular target: Mitogen-activated protein kinase kinase kinase 8 (Homo sapiens) (UniProt P41279); assay: Inhibition of recombinant human GST-tagged MAP3K8 (30-397 residues) expressed in insect cells at 2 uM using Ser/Thr 03 as substrate measured after 1 hr by Z'-LYTE assay relative to control; conditions: Insect cell
[10] = molecular target: Mitogen-activated protein kinase 13 (Homo sapiens) (UniProt O15264); assay: Inhibition of recombinant human full length His-tagged MAPK13 expressed in baculovirus expression system at 2 uM using Ser/Thr 03 as substrate measured after 1 hr by Z'-LYTE assay relative to control
[11] = molecular target: Mitogen-activated protein kinase 8 (Homo sapiens) (UniProt P45983); assay: Inhibition of recombinant human full length His-tagged MAPK8 expressed in insect cells at 2 uM using Ser/Thr 04 as substrate measured after 1 hr by Z'-LYTE assay relative to control; conditions: Insect cell
[12] = molecular target: Phosphorylase b kinase gamma catalytic chain, liver/testis isoform (Homo sapiens) (UniProt P15735); assay: Inhibition of recombinant human full length GST-tagged PHKG2 expressed in insect cells at 2 uM using Ser/Thr 07 as substrate measured after 1 hr by Z'-LYTE assay relative to control; conditions: Insect cell
[13] = molecular target: Serine/threonine-protein kinase pim-2 (Homo sapiens) (UniProt Q9P1W9); assay: Inhibition of recombinant human full length GST-tagged PIM2 expressed in insect cells at 2 uM using Ser/Thr 07 as substrate measured after 1 hr by Z'-LYTE assay relative to control; conditions: Insect cell
[14] = molecular target: Serine/threonine-protein kinase PLK1 (Homo sapiens) (UniProt P53350); assay: Inhibition of recombinant human full length His-tagged PLK1 expressed in insect cells at 2 uM using Ser/Thr 16 as substrate measured after 1 hr by Z'-LYTE assay relative to control; conditions: Insect cell
[15] = molecular target: Protein-tyrosine kinase 2-beta (Homo sapiens) (UniProt Q14289); assay: Inhibition of recombinant human full length GST-tagged PTK2B expressed in insect cells at 2 uM using Tyr 01 as substrate measured after 1 hr by Z'-LYTE assay relative to control; conditions: Insect cell
[16] = molecular target: Ribosomal protein S6 kinase beta-1 (Homo sapiens) (UniProt P23443); assay: Inhibition of recombinant human GST-tagged RPS6KB1 (1-421 residues) expressed in insect cells at 2 uM using Ser/Thr 07 as substrate measured after 1 hr by Z'-LYTE assay relative to control; conditions: Insect cell
[17] = molecular target: Serine/threonine-protein kinase Sgk2 (Homo sapiens) (UniProt Q9HBY8); assay: Inhibition of recombinant human GST-tagged SGK2 (54-427 residues) expressed in insect cells at 2 uM using Ser/Thr 06 as substrate measured after 1 hr by Z'-LYTE assay relative to control; conditions: Insect cell
[18] = molecular target: Serine/threonine-protein kinase 25 (Homo sapiens) (UniProt O00506); assay: Inhibition of recombinant human full length GST-tagged STK25 expressed in insect cells at 2 uM using Ser/Thr 07 as substrate measured after 1 hr by Z'-LYTE assay relative to control; conditions: Insect cell
[19] = test system: MDA-MB-231; assay: Antiproliferative activity against human MDA-MB-231 cells assessed as cell growth inhibition incubated for 24 hrs by MTS assay; assay type: functional, cell-based; conditions: MDA-MB-231, 24 h
[20] = test system: NCI-H157; assay: Antiproliferative activity against human NCI-H157 cells assessed as cell growth inhibition incubated for 24 hrs by MTS assay; assay type: functional, cell-based; conditions: NCI-H157, 24 h
[21] = test system: U-87 MG; assay: Antiproliferative activity against human U-87MG cells assessed as cell growth inhibition at 10 micromol/L incubated for 3 days by MTS assay relative to control; assay type: functional, U-87MG ATCC; conditions: 72 h, dose 10 µmol/L, time 3 day
[22] = test system: MDA-MB-361; assay: Induction of apoptosis in human MDA-MB-361 cells assessed as induction in cell death at 10 nmol/L incubated for 48 hrs by FACS analysis relative to control; assay type: functional
[23] = test system: PC3MM2; assay: Antitumor activity against human PC3MM2 cells xenografted in female nude mouse model assessed as suppression in P-AKT at S473 level at 50 mg/kg, iv administered once a week and measured at least 8 hrs by immunoblot analysis; assay type: functional, organism-based
[24] = test system: 786-0; assay: Antitumor activity against PTEN null-human 786-0 cells xenografted in female nude mouse model assessed as suppression in tumor growth at 25 mg/kg, po qd administered as 5 days on/2 days off regimen for 4 cycles relative to control; assay type: functional; conditions: time 28 day
[25] = test system: A498; assay: cells; conditions: Homo sapiens, A498, 48 h
Description: Antiproliferative activity against human A498 cells assessed as cell growth inhibition incubated for 2 days by MTS assay

Chain of Mitogen-activated protein kinase 8 (Homo sapiens) (P45983 whole entry, canonical isoform): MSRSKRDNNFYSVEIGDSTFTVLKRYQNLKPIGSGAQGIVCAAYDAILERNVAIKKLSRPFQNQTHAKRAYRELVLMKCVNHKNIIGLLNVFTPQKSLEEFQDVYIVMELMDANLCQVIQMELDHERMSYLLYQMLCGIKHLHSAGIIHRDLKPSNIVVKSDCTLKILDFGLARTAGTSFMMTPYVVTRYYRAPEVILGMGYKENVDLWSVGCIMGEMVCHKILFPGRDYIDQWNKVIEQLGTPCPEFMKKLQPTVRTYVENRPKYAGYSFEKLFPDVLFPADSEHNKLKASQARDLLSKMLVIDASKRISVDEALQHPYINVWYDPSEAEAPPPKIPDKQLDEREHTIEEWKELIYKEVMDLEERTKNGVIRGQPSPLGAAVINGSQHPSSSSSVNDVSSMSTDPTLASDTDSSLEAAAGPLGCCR
Chain of Mitogen-activated protein kinase kinase kinase 8 (Homo sapiens) (P41279 whole entry, the tested form may be a part): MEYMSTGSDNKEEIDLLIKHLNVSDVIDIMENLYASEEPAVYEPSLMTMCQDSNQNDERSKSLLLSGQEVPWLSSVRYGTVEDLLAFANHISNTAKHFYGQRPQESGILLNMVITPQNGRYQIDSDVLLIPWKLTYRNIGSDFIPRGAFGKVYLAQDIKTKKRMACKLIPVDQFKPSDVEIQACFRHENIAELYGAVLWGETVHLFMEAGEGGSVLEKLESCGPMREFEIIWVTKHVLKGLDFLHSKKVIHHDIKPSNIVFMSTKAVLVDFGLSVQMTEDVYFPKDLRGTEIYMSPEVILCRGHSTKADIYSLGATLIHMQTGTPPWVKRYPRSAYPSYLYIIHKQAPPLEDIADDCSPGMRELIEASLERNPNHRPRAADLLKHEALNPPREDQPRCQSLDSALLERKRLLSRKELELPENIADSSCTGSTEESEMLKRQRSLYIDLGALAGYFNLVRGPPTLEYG
Chain of Serine/threonine-protein kinase 25 (Homo sapiens) (O00506 whole entry, looked up): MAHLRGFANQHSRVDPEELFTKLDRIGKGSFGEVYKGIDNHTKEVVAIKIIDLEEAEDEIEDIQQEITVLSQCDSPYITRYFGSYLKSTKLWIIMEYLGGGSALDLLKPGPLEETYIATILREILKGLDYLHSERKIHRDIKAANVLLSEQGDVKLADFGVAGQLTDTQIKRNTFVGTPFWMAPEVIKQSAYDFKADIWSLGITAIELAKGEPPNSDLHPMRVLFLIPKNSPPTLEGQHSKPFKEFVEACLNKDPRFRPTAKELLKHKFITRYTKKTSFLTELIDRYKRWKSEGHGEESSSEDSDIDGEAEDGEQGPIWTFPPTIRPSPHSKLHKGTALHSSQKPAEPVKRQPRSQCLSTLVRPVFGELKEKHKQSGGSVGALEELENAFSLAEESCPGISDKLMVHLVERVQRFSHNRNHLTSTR
Chain of Serine/threonine-protein kinase pim-2 (Homo sapiens) (Q9P1W9 whole entry, looked up): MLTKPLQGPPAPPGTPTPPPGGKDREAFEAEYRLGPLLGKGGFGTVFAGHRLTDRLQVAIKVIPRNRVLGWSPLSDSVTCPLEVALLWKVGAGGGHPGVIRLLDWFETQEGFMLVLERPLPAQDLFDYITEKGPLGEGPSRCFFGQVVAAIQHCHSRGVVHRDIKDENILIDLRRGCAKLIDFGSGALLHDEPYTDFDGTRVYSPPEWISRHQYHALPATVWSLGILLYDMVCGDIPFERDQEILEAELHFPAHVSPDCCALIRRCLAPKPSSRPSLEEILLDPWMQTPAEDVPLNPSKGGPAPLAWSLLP
Chain of Serine/threonine-protein kinase PLK1 (Homo sapiens) (P53350 whole entry): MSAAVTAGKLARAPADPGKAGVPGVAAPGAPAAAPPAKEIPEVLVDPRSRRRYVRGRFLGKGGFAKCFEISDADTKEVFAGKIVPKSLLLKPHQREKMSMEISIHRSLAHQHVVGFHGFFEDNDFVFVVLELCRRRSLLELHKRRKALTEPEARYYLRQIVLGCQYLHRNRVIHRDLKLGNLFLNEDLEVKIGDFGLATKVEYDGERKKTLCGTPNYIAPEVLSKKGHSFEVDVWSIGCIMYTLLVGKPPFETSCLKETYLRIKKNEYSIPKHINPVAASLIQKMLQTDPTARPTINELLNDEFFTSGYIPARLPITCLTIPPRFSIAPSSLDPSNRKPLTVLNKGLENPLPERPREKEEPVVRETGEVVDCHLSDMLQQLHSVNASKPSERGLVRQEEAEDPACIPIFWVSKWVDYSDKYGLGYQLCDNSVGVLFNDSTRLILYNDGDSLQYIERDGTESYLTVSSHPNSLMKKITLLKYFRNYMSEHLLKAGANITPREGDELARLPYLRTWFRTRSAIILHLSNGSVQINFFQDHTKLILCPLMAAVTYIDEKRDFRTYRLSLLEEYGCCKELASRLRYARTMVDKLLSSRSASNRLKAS
Chain of Ephrin type-B receptor 4 (Homo sapiens) (P54760 whole entry, the tested form may be a part): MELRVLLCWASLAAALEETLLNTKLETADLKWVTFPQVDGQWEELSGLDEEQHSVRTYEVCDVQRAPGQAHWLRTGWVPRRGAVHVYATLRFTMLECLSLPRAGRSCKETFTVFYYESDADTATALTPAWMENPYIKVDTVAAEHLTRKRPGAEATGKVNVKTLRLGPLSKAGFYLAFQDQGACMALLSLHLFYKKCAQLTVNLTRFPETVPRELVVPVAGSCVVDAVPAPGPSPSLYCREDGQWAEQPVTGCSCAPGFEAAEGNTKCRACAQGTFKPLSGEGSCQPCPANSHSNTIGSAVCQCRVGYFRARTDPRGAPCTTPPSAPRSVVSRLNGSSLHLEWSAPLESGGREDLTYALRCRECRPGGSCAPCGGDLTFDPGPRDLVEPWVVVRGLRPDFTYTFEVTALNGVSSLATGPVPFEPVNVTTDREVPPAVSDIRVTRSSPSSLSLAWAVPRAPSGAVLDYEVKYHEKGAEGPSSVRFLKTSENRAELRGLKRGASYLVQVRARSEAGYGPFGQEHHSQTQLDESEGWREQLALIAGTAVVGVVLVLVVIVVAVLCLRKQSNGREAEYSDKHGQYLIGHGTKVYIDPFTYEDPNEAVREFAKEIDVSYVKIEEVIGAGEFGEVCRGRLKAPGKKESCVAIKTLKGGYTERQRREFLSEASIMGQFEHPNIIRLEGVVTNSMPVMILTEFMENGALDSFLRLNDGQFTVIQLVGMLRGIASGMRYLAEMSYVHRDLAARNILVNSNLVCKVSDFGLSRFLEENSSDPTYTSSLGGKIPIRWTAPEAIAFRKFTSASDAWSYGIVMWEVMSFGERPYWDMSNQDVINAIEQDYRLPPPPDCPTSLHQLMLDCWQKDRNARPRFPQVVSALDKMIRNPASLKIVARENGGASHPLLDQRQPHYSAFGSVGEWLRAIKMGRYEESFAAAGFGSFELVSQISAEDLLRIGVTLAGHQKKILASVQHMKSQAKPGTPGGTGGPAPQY
Chain of Ribosomal protein S6 kinase beta-1 (Homo sapiens) (P23443 whole entry, looked up, the tested form may be a part): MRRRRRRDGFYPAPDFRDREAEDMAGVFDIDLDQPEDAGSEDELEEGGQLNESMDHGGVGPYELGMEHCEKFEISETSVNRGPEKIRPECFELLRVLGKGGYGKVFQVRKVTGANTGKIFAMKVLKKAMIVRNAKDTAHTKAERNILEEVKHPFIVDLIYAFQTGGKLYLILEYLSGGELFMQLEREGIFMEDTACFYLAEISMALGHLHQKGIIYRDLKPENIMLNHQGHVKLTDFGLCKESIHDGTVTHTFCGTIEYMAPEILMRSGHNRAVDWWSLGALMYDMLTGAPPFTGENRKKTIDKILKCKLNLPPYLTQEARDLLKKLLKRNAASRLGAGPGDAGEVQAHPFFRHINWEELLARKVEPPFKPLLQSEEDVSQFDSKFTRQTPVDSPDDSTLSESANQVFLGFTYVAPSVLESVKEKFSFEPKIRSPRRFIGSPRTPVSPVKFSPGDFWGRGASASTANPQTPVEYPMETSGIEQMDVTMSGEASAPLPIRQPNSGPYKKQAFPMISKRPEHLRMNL
Chain of Protein-tyrosine kinase 2-beta (Homo sapiens) (Q14289 whole entry, looked up, the tested form may be a part): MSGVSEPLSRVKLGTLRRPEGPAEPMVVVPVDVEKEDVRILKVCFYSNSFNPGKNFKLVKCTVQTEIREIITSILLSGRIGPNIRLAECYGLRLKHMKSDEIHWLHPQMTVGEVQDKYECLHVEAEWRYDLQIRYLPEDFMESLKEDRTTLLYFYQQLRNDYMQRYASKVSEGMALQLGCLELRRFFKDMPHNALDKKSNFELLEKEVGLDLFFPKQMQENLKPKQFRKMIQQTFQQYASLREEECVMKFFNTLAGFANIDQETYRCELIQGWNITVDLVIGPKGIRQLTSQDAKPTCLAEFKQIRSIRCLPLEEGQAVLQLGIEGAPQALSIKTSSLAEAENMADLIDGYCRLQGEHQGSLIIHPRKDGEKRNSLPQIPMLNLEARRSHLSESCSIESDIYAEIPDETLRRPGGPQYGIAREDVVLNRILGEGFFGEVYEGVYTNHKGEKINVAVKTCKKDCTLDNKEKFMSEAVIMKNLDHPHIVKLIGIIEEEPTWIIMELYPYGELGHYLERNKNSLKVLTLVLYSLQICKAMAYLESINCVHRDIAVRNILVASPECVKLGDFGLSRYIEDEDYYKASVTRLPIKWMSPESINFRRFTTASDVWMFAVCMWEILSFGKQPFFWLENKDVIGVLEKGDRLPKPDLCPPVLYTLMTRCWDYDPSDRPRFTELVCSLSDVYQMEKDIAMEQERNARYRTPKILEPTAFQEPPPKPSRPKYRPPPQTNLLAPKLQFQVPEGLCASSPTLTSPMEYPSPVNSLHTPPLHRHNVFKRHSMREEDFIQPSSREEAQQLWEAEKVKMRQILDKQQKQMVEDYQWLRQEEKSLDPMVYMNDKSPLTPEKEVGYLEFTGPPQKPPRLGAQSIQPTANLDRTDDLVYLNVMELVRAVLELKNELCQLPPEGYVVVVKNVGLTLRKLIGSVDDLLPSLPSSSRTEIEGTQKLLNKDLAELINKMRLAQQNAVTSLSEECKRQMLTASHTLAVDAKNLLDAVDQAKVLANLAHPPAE

Structure (SMILES): CNC(=O)Nc1ccc(-c2nc(N3CC4CCC(C3)O4)c3cnn(C4CCC5(CC4)OCCO5)c3n2)cc1
- inhibition [1]: 4%
- inhibition [2]: 1%
- inhibition [3]: 7%
- inhibition [4]: 2%
- inhibition [5]: -4%
- inhibition [6]: 5%
- inhibition [7]: 2%
- inhibition [8]: 4%
- inhibition [9]: 1%
- inhibition [10]: 4%
- inhibition [11]: 12%
- inhibition [12]: 12%
- inhibition [13]: 3%
- inhibition [14]: -4%
- inhibition [15]: -3%
- inhibition [16]: 2%
- inhibition [17]: 5%
- inhibition [18]: 2%
- IC50 [19]: 60 nM
- IC50 [20]: 145 nM
- inhibition at 10 µM [21]: 100%
- Activity [22]: 6.2%
- Activity [23]: Active
- Activity [24]: 100%
- IC50 [25]: 2500 nM
